Counter-ions that a name gives are not always drawn.
Molecular target: T1, recombinant human PDE5 (Homo sapiens, UniProt O76074)
T1 construct: host or cells: Saccharomyces cerevisiae strain BJ2-54 (ATCC 74465)
Assay: PDE5 inhibition, cGMP-PDE one-step assay
Format: biochemical
Settings: in vitro

`CN1CC(=O)N2[C@H](c3ccc4c(c3)OCO4)c3[nH]cnc3C[C@@H]2C1=O` (racemic) [Example 1, (+−, cis)-4-Benzo[1,3]dioxol-5-yl-7-methyl-3,4,6,7,8a,9-hexahydro-1,3,4a,7-tetraaza-cyclopenta[b]naphthalene-5,8-dione hydrochloride] showed an IC50 of 3240 nM.
Work on `COc1cc2c(cc1OC)[C@@H](c1ccc3c(c1)OCO3)N1C(=O)CN(C)C(=O)[C@@H]1C2` [Example 10] yielded an IC50 of 718 nM.
